Patent US9783536B2, “Nitrogen-containing heterocyclic compound or salt thereof” (FUJIFILM Corporation, priority 2013, dated 2017)
pIC50: −log10 of the molar value. Where two headings read alike, the source gives them in different places.

Key:
[1] = target: T1, human PI3Kα protein (Homo sapiens, UniProt P42336); test: PI3Kα enzyme assay (ADP-Glo); assay type: biochemical; conditions: read-out: PI3Kα enzyme inhibitory activity
T1 construct: purchased Carna Biosciences, Inc; host or cells: baculovirus expression system
T1 sequence (P42336 whole entry): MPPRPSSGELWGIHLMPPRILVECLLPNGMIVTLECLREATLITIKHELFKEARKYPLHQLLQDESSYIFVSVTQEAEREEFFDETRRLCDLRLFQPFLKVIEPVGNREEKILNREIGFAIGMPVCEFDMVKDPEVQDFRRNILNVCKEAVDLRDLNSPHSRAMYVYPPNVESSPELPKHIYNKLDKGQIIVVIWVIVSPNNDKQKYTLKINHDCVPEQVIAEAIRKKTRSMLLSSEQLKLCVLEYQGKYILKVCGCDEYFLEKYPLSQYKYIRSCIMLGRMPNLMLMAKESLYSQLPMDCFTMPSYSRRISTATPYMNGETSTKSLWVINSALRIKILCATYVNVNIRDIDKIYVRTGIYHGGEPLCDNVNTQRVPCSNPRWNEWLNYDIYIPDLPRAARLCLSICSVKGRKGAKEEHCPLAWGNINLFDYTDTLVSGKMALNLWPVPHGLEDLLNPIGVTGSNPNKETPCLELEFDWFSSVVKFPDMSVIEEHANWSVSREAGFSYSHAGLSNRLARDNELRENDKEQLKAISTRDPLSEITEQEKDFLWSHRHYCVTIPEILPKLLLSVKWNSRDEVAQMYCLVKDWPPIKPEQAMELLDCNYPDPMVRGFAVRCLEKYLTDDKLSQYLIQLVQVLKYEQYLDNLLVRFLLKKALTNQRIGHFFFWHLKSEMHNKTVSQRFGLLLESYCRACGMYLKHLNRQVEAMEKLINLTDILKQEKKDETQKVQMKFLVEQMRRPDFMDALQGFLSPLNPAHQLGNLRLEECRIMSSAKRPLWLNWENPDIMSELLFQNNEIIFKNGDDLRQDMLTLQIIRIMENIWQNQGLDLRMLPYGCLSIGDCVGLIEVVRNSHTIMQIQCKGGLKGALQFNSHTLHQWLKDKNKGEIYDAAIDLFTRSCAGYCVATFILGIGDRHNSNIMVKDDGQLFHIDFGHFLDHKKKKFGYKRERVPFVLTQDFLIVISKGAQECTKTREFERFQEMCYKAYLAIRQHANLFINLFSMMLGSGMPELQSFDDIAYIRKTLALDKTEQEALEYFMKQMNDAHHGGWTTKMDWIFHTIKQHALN
T1 sequence (P27986 whole entry partner): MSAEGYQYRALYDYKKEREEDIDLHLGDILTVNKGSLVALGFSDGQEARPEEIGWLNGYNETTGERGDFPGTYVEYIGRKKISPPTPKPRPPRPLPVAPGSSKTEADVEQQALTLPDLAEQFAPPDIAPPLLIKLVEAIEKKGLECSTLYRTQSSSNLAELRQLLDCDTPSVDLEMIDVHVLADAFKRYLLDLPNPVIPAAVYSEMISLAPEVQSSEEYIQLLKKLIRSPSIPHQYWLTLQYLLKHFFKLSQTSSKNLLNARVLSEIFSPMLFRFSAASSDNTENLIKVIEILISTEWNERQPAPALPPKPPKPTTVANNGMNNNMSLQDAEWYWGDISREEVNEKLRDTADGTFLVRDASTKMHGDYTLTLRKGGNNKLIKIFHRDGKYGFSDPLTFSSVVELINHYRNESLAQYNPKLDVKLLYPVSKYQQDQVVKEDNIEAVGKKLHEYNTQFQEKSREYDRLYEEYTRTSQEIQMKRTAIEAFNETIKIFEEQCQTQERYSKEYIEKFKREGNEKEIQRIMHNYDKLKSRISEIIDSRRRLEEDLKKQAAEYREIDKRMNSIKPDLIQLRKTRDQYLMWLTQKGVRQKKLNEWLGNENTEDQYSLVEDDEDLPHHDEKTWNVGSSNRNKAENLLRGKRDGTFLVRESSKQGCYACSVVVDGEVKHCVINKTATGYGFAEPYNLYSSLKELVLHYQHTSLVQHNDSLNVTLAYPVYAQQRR
Outline: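 Biotinylated human PI3Kα (baculovirus-expressed, 4.5 nmol/L) pre-incubated 15 min with compound in Tris-HCl pH 7.5, MgCl2, BSA; reaction 60 min at 25° C with 50 μmol/L PIP2 and 100 μmol/L ATP final. ADP quantified by ADP-Glo luminescence; IC50 calculated.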

[2] = target: T2, GST fusion human ERK2 protein (Homo sapiens, UniProt P28482); test: ERK2 enzyme assay (2); assay type: biochemical; conditions: read-out: ERK2 enzyme inhibitory activity (2)
T2 construct: purchased Carna Biosciences, Inc; host or cells: E. coli expression system
T2 sequence (P28482 whole entry, the tested form may be a part): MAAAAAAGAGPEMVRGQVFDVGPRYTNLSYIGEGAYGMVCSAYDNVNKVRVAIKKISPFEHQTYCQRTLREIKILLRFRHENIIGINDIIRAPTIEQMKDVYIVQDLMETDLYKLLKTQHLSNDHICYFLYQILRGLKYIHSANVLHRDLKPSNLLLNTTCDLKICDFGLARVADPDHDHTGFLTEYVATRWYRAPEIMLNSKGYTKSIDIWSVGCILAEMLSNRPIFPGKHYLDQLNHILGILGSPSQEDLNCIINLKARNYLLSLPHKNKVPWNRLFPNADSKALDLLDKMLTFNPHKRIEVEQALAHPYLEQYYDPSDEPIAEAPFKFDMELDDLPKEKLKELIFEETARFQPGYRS
Outline: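 IC50 values come from mobility-shift measurement of phosphorylated versus unphosphorylated 5-FAM peptide substrate after EDTA quench. Beforehand, compound and 1.25 nmol/L E. coli-expressed GST–human ERK2 stood 15 min at room temperature (pH 7.5), then 1 mmol/L ATP and 4.25 μmol/L substrate (final) were added for 120 min at 25 °C.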

pIC50 [1] | pIC50 ([2]; ERK2 enzyme assay (2)) | pIC50 [2] | Compound
> 6.00 | 5.00 to 6.00 |  | COCCC(=O)Nc1cnc2ccc(Nc3cc(C(C)C)cnn3)nc2c1 [Example 0632, N-(6-((5-isopropylpyridazin-3-yl)amino)-1,5-naphthyridin-3-yl)-3-methoxypropanamide]
> 6.00 | > 6.00 |  | COc1ccc(OCc2nn(C)cc2-c2cnc3ccc(Nc4cc(C(C)C)cnn4)nc3c2)cc1 [Example 0806]
> 6.00 |  | > 6.00 | CCCc1cnnc(Nc2ccc3ncc(-c4cnn(C)c4)cc3n2)c1 [Example 0918]
> 6.00 |  | > 6.00 | CC(C)c1cnnc(Nc2ccc3ncc(-c4cnn(C)c4)c(N4CCOCC4)c3n2)c1 [Example 0955, N-(5-isopropylpyridazin-3-yl)-7-(1-methyl-1H-pyrazol-4-yl)-8-morpholino-1,5-naphthyridine-2-amine]
> 6.00 | > 6.00 |  | CC(C)c1cnnc(Nc2ccc3ncc(-c4cnn(CCCN5CC(C(=O)N6CCOCC6)C5)c4)cc3n2)c1 [Example 0689]
> 6.00 | 5.00 to 6.00 |  | CC(C)c1cnnc(Nc2ccc3ncc(NC4CCCCC4)cc3n2)c1 [Example 0877]
> 6.00 | > 6.00 |  | CC(C)c1cnnc(Nc2ccc3ncc(-c4cnn(CCCN5CCN(c6ccncc6)CC5)c4)cc3n2)c1 [Example 0445]
> 6.00 | > 6.00 |  | CC(C)c1cnnc(Nc2ccc3ncc(-c4cnn(CCOC5CN(Cc6ccccc6)C5)c4)cc3n2)c1 [Example 0743]
> 6.00 | > 6.00 |  | CC(C)c1cnnc(Nc2ccc3ncc(-c4cnn(CC5CCN(C(=O)C6CCCCC6)CC5)c4)cc3n2)c1 [Example 0538]
> 6.00 | > 6.00 |  | Cc1nn(C)cc1-c1cnc2ccc(Nc3cc(C4CC4)cnn3)nc2c1 [Example 0565]
5.00 to 6.00 | > 6.00 |  | CC(C)c1cnnc(Nc2ccc3ncc(-n4cnc(CCNC(=O)OC(C)(C)C)c4)cc3n2)c1 [Example 0505, tert-Butyl (2-(1-(6-((5-isopropylpyridazin-3-yl)amino)-1,5-naphthyridin-3-yl)-1H-imidazol-4-yl)ethyl)carbamate]
> 6.00 | > 6.00 |  | CC(C)c1cnnc(Nc2ccc3ncc(-c4cnn(CCCN5CCC(F)(F)CC5)c4)cc3n2)c1 [Example 0419, 7-(1-(3-(4,4-Difluoropiperidin-1-yl)propyl)-1H-pyrazol-4-yl)-N-(5-isopropylpyridazin-3-yl)-1,5-naphthyridine-2-amine]
> 6.00 | > 6.00 |  | COC1CN(CCCn2cc(-c3cnc4ccc(Nc5cc(C(C)C)cnn5)nc4c3)c(C)n2)C1 [Example 0796, N-(5-isopropylpyridazin-3-yl)-7-(1-(3-(3-methoxyazetidin-1-yl)propyl)-3-methyl-1H-pyrazol-4-yl)-1,5-naphthyridine-2-amine]
> 6.00 | > 6.00 |  | CC(C)c1cnnc(Nc2ccc3ncc(-c4cnn(CCN5C[C@@H](C)O[C@@H](C)C5)c4)cc3n2)c1 [Example 0617, 7-(1-(2-((2S,6R)-2,6-dimethylmorpholino)ethyl)-1H-pyrazol-4-yl)-N-(5-isopropylpyridazin-3-yl)-1,5-naphthyridine-2-amine]
> 6.00 | > 6.00 |  | COc1cncc(-c2nn(C)cc2-c2cnc3ccc(Nc4cc(C(C)C)cnn4)nc3c2)c1 [Example 0451]
> 6.00 | > 6.00 |  | COCCN(CCCn1cc(-c2cnc3ccc(Nc4cc(C(C)C)cnn4)nc3c2)cn1)CCOC [Example 0660]
> 6.00 | > 6.00 |  | COC(CCn1cc(-c2cnc3ccc(Nc4cc(C(C)C)cnn4)nc3c2)cn1)OC [Example 0646, 7-(1-(3,3-dimethoxypropyl)-1H-pyrazol-4-yl)-N-(5-isopropylpyridazin-3-yl)-1,5-naphthyridine-2-amine]
> 6.00 | > 6.00 |  | CC(C)c1cnnc(Nc2ccc3ncc(-c4cnn(CCCN5CCC(F)(F)C5)c4)cc3n2)c1 [Example 0427]
> 6.00 | > 6.00 |  | CCC(C)c1cnnc(Nc2ccc3ncc(-c4cnn(C)c4)cc3n2)c1 (stereo not shown) [Example 0569]
5.00 to 6.00 |  | > 6.00 | COCc1cnnc(Nc2ccc3ncc(-c4cnn(C)c4)cc3n2)c1 [Example 0922]
5.00 to 6.00 | > 6.00 |  | CC(C)c1cnnc(Nc2ccc3ncc(-c4cnn(CCOC5CN(C(=O)OC(C)(C)C)C5)c4)cc3n2)c1 [Example 0739, tert-Butyl 3-(2-(4-(6-((5-isopropylpyridazin-3-yl)amino)-1,5-naphthyridin-3-yl)-1H-pyrazol-1-yl)ethoxy)azetidine-1-carboxylate]

pIC50 [1] | pIC50 ([2]; ERK2 enzyme assay (2)) | pIC50 [2] | Compound
> 6.00 | > 6.00 |  | CC(=O)N1CC(Cn2cc(-c3cnc4ccc(Nc5cc(C(C)C)cnn5)nc4c3)cn2)C1 [Example 0438, 1-(3-((4-(6-((5-isopropylpyridazin-3-yl)amino)-1,5-naphthyridin-3-yl)-1H-pyrazol-1-yl)methyl)azetidin-1-yl)ethanone]
> 6.00 | > 6.00 |  | Cn1cc(-c2cnc3ccc(Nc4cc(C(C)(C)O)cnn4)nc3c2)cn1 [Example 0543, 2-(6-((7-(1-Methyl-1H-pyrazol-4-yl)-1,5-naphthyridin-2-yl)amino)pyridazin-4-yl)propan-2-ol]
> 6.00 | > 6.00 |  | CC(C)COC1CN(CCCn2cc(-c3cnc4ccc(Nc5cc(C(C)C)cnn5)nc4c3)cn2)C1 [Example 0708]
> 6.00 | > 6.00 |  | CC(=O)N1[C@H](C)CN(CCCn2cc(-c3cnc4ccc(Nc5cc(C(C)C)cnn5)nc4c3)cn2)C[C@@H]1C [Example 0435]
> 6.00 |  | > 6.00 | CC(C)c1cnnc(Nc2ccc3ncc(-c4cnn(C)c4)c(-c4cccnc4)c3n2)c1 [Example 0954, N-(5-isopropylpyridazin-3-yl)-7-(1-methyl-1H-pyrazol-4-yl)-8-(pyridin-3-yl)-1,5-naphthyridine-2-amine]
> 6.00 | > 6.00 |  | COCC(COC)Cn1cc(-c2cnc3ccc(Nc4cc(C(C)C)cnn4)nc3c2)cn1 [Example 0484]
5.00 to 6.00 | > 6.00 |  | CCc1nc(C)cn1-c1cnc2ccc(Nc3cc(C(C)C)cnn3)nc2c1 [Example 0514]
> 6.00 | > 6.00 |  | CC(C)c1cnnc(Nc2ccc3ncc(-c4cnn(C[C@H]5CC[C@H](O)CC5)c4)cc3n2)c1 [Example 0521]
> 6.00 | > 6.00 |  | CC(C)c1cnnc(Nc2ccc3ncc(-c4cn(C)nc4NC4CN(C)C4)cc3n2)c1 [Example 0827, N-(5-isopropylpyridazin-3-yl)-7-(1-methyl-3-((1-methylazetidin-3-yl)amino)-1H-pyrazol-4-yl)-1,5-naphthyridine-2-amine]
> 6.00 | > 6.00 |  | CC(C)c1cnnc(Nc2ccc3ncc(-c4cnn(CCCN(C)CC(F)(F)F)c4)cc3n2)c1 [Example 0700, N-(5-isopropylpyridazin-3-yl)-7-(1-(3-(methyl (2,2,2-trifluoroethyl)amino)propyl)-1H-pyrazol-4-yl)-1,5-naphthyridine-2-amine]
> 6.00 | > 6.00 |  | COC1(C)CN(CCCn2cc(-c3cnc4ccc(Nc5cc(C(C)C)cnn5)nc4c3)c(C)n2)C1 [Example 0797]
> 6.00 | > 6.00 |  | CC(C)c1cnnc(Nc2ccc3ncc(-c4cnn(CCCN5CCC(C(F)(F)F)CC5)c4)cc3n2)c1 [Example 0673]
> 6.00 | > 6.00 |  | CC(C)c1cnnc(Nc2ccc3ncc(-c4cn(C)nc4NC4CNC4)cc3n2)c1 [Example 0826]
> 6.00 | > 6.00 |  | CC(=O)N1CCC(n2cc(-c3cnc4ccc(Nc5cc(C(C)C)cnn5)nc4c3)cn2)CC1 [Example 0478, 1-(4-(4-(6-((5-Isopropylpyridazin-3-yl)amino)-1,5-naphthyridin-3-yl)-1H-pyrazol-1-yl)piperidin-1-yl)ethanone]
> 6.00 |  | > 6.00 | CC(C)c1cnnc(Nc2ccc3ncc(-c4cn(C)nc4N(C)C4COC4)cc3n2)c1 [Example 0943]
5.00 to 6.00 | > 6.00 |  | CC(C)c1cnnc(Nc2ccc3ncc(C4=CCN(C)CC4)cc3n2)c1 [Example 0884, N-(5-isopropylpyridazin-3-yl)-7-(1-methyl-1,2,3,6-tetrahydropyridin-4-yl)-1,5-naphthyridine-2-amine]
> 6.00 | > 6.00 |  | CC(C)c1cnnc(Nc2ccc3nccc(-c4ccncc4)c3n2)c1 [Example 0410]
> 6.00 | > 6.00 |  | CCOC1CN(CCCn2cc(-c3cnc4ccc(Nc5cc(C(C)C)cnn5)nc4c3)cn2)C1 [Example 0676, N-(5-isopropylpyridazin-3-yl)-7-(1-(3-(3-ethoxyazetidin-1-yl)propyl)-1H-pyrazol-4-yl)-1,5-naphthyridine-2-amine]
> 6.00 | > 6.00 |  | CC(=O)Nc1nn(C)cc1-c1cnc2ccc(Nc3cc(C(C)C)cnn3)nc2c1 [Example 0690, N-(4-(6-((5-isopropylpyridazin-3-yl)amino)-1,5-naphthyridin-3-yl)-1-methyl-1H-pyrazol-3-yl)acetamide]
> 6.00 | > 6.00 |  | CC(C)c1cnnc(Nc2ccc3ncc(-c4cn(C)nc4-c4ccccn4)cc3n2)c1 [Example 0838, N-(5-isopropylpyridazin-3-yl)-7-(1-methyl-3-(pyridin-2-yl)-1H-pyrazol-4-yl)-1,5-naphthyridine-2-amine]
